Data reported in patent publication US10512624B2, “Long-chain amphipathic dicarboxylic acids for treatment of diabetes type-1” (Syndromex Ltd., priority 2016, dated 2019).

Tests used:
hepatic gluconeogenesis = assay: Suppression of hepatic gluconeogenesis in STZ diabetic rats (RT-PCR, Western blot, cAMP kit); assay type: in vivo, rat
Procedure: Administering a combination of Medica16αα and insulin was performed by treating STZ diabetic rats (FBG >300 mg/dl) with oral MEDICA16αα(15 mg/kg b.i.d) for five consecutive days, then MEDICA16αα-responsive rats were further treated with MEDICA16αα(15 mg/kg b.i.d) for 10 additional consecutive days (“STZ/MEDICA Res”), and MEDICA16αα non-responsive rats (FBG >250 mg/dl) were further treated for 10 additional consecutive days with either insulin Neutral Protamine Hagedorn (NPH) (3 u/kg b.i.d subcutaneously) (“STZ/NPH”), or with insulin NPH (3 u/kg b.i.d subcutaneously in combination with oral MEDICA16αα(15 mg/kg b.i.d) (“STZ/MEDICA NPH”).
Sampled frozen tissue was homogenized (Polytron) in lysis buffer (50 mM Tris HCl, pH 8.0, 1% Triton X-100, 1 mM EGTA, 1 mM EDTA, 150 mM NaCl, 5 mM NaPPi, 50 mM NaF, 1 mM PMSF, 1 mM Na Vanadate, 40 nM bpVfan and protease inhibitor cocktail (Sigma)), and centrifuged for 15 min at 12,500 rpm.
Protein lysates were prepared in sodium dodecyl sulfate (SDS) sample buffer (62 mM Tris (pH 6.8), 2.3% SDS, […] mercaptoethanol, 10% glycerol), and were subjected to SDS-PAGE, electro-transferred onto cellulose nitrate membranes (Schleicher & Schuell) and probed with the indicated first antibody, followed by HRP-labeled second antibody. Protein concentration was determined by BCA (Thermo Scientific). Bands were detected by ECL, and the intensity of individual bands was determined by densitometry using ImageJ 1.48 v software.
Sampled frozen tissue was homogenized (Polytron) in lysis buffer (50 mM Hepes (pH 7.4), 150 mM NaCl, 10% Glycerol, 1.5 mM MgCl2, 1 mM EGTA, 1% Triton, 50 mM β-glycerolphosphate, 25 mM NaF, 1 mM Na-vanadate, 40 nM bpVphen, protease inhibitor mix (Sigma) and 17.5 mg/ml octyl beta-D-glucopyranoside (Sigma)). Lysates were kept on ice for 30 min and centrifuged at 12000 rpm for 15 min. Lysates ([…]) were incubated for 4 h with protein A/G beads (Santa Cruz Biotechnology) pre-loaded with the indicated antibody. The immune-precipitate was rinsed 3 times with washing buffer (20 mM Hepes (pH 7.4), 150 mM NaCl, 0.1% Tx-100, 10% glycerol), re-suspended in SDS sample buffer, boiled for 8 min, and analyzed by SDS-PAGE.
Total RNA was prepared using the TRI reagent (Sigma Aldrich). First-strand cDNA used as template was synthesized by reverse transcription using oligo(dT) as primer and the Reverse-iTMAX First Strand Kit (ABgene, Epson). Glucose-6-phosphatase (G6Pase) and phosphoenolpyruvate carboxykinase (PEPCK) transcripts normalized by tubulin were quantified by real-time PCR (Rotor Gene RG-3000A) using SYBER green MasterMix (Absolute Syber Green ROX Mix, ABgene) and the following primers: […]
Pancreas and plasma insulin and glucagon content were determined by insulin (Millipore, Cat #RI-13K) and glucagon (Millipore, Cat # GL-32K) radioimmunoassay (RIA) kits. cAMP levels were measured by cAMP kit (Arbor Assays, DetectX Cat # K019-H1).

NOD mice [1] = assay: Prevention of overt type 1 diabetes (T1D) in NOD mice; assay type: in vivo, mouse
Procedure: NOD/LtJ mice (Harlan Laboratories) were bred in-house under pathogen-free conditions. Female mice (3-week old) were fed ad libitum from weaning on with standard chow (Harlan Teklad 2018), or with MEDICA16αα diet (0.04% (w/w) MEDICA16αα mixed in Teklad 2018, yielding a dose of 40 mg MEDICA16αα per kg body weight per day). Mice were monitored weekly for body weight and food consumption. Tail vein blood glucose was verified weekly from week 10th on, on a set day and hour. Mice were considered diabetic if presenting non-fasting blood glucose levels >300 mg/dl for 3 consecutive days. Diabetic mice were euthanized, and blood and tissues were sampled for further studies.

NOD mice [2] = assay: Hyperinsulinemic-euglycemic clamp in pre-diabetic NOD mice; assay type: in vivo, mouse
Procedure: Clamps were carried out according to Vanderbilt Mouse Metabolic Phenotyping Center, Vanderbilt University School of Medicine protocol (28), with minor modifications, using HPLC-purified ^3H-glucose (specific activity 13.5 Ci/mmol, MT-914 Moravek Biochemicals, priming dose of 1 μC followed by continuous infusion of 0.05 μCi·min-1 for a 90 min equilibration period), HumulinR insulin (Eli Lilly, 4 mU·kg-1. min-1), and 10% glucose solution.
Clamps were carried out in conscious 12-14-week old NOD female mice fasted for 3 hours, 3 days following catheters' insertion. […] Plasma glucose specific activity was verified on 80, 90, 100, and 120 min following insulin infusion. On 120 min, 12-μCi bolus of ^14C-2-deoxyglucose (DG) (specific activity 274.6 mCi/mmol, MC-392 Moravek Biochemicals) was injected, followed by blood sampling on 122, 125, 130, 135, and 145 min, to determine blood glucose and 2-deoxyglucose activity.
Upon sacrifice, gastrocnemius, superficial vastus lateralis, and soleus muscles were removed, immediately frozen in liquid nitrogen, and stored at −70° C. until further analysis. Glucose appearance (Ra) and disappearance (Rd) were determined using Steele non-steady-state equations. Endogenous glucose production (EndoRt) was determined by subtracting the glucose infusion rate (GIR) from total glucose turnover (Rt). Glucose metabolic index in muscle (Rg) was calculated by the equation:
[formula] where 2[^14C]DGPtissue is the 2[^14C]DG radioactivity in muscle normalized to tissue weight (dpm/g tissue), AUC 2[^14C]DGplasma is the area under the plasma 2[^14C]DG disappearance curve (dpm·min·m1-1), and [arterial glucose] is the average blood glucose (mmol/1) during the 80-120 min clamp period. Immuno-Histochemistry

NOD mice [3] = assay: IPGTT in pre-diabetic NOD mice; assay type: in vivo, mouse; conditions: 14-week and 24-week old NOD mice
Procedure: Overnight fasted NOD mice were injected i.p (2 gr/kg bw) with standard 20% dextrose solution. Tail vein blood was sampled on 0, 15, 30, 60, 90 and 120 minutes. Blood glucose was measured by glucometer. Plasma insulin prior to and 30 min following glucose injection was measured using Ultrasensitive Mouse Insulin ELISA kit (Crystal Chem).

In the case of CC(C)(CCCCCCCCCCCCC(C)(C)C(=O)O)C(=O)O [MEDICA16αα, 2,2,15,15-tetramethylhexadecane-1,16-dioic acid], the “hepatic cAMP levels” value (hepatic gluconeogenesis) is reported as “suppressing hepatic cAMP levels”, the “hepatic phospho-ACC(Ser79) (AMPK activation)” value (hepatic gluconeogenesis) is reported as “phosphorylation of its downstream ACC(Ser79) substrate” and the “decrease in body weight gain” value (NOD mice [1]; NOD mice, 40 mg/kg per day in feed) is reported as 40%. The “NOD mice in which development of T1D was delayed or prevented” value (NOD mice [1]; oral in feed 40 mg/kg per day from weaning, 21 weeks (until week 26), 32% in non-treated group) was 71%, the clamped plasma insulin (NOD mice [2]) was “decrease” and the “deoxyglucose uptake into soleus and gastrocnemius muscles” value (NOD mice [2]) was “insulin-induced deoxyglucose uptake”. For the same compound, the endogenous glucose production (NOD mice [2]) was “insulin-induced decrease”, the “increase in glucose infusion rate (GIR)” value (NOD mice [2]) was 37% and the “total body glucose turnover” value (NOD mice [2]) was “increase”. For the same compound, the “pre-diabetic IPGTT profile” value (NOD mice [3]) was “normalizing” and the glucose-stimulated plasma insulin (NOD mice [3]; first 30 min of IPGTT) was “remained unaffected”.
